Reference: US5585382A, “Polycyclic and heterocyclic chromophores for bis-imide tumoricidals” (The DuPont Merck Pharmaceutical Company, priority 1995, dated 1996)
Read-outs that look alike come from different tables or passages of the source.

What was measured:
DLD-2 human colon tumor = assay: In vivo human tumor xenograft DLD-2 in nude mice; conditions: for Tumor Growth Inhibition activity against DLD-2 (in words): NCI criteria
From the text: (§1) The DLD-2 human colon tumor and MX-1 human mammary carcinoma, were originally obtained from a surgically-removed primary colon carcinoma or breast tumor respectively. The human tumor lines were maintained by serial passage in athymic nude mice. The MX-1 human mammary carcinoma is an established tumor used by the NCI. The DLD-2 human colon tumor has been well characterized. (Dexter, D. L.; Spremulli, E. N.; Matook, G. M.; Diamond, I.; Calabresi, P. Cancer Research 1982, 42, 5010; Dexter, D. L.; Barbosa, J. A.; Calabresi, P. Cancer Research 1979, 39, 1020.)
(§2) The mice used in these experiments were outbred Swiss mice or CD-1 mice bearing the nude (nu/nu) gene. On Day 0, male and female mice weighing 22-30 g are inoculated with 0.2 mL of a 25% tumor mince. This mince is prepared by mincing fresh tumor tissue, grown subcutaneously in passage mice, in sterile physiological saline. Palpable tumors weighing approximately 50 mg appear in the mice within 7-10 days after inoculation. The mice are pair matched by tumor weight and sex into groups of ten each and the test compounds and vehicle control are administered intravenously (i.v.) once daily for nine consecutive days. A >20% decrease in body weight on Day 5 following compound administration is considered an indication of toxicity. Tumor measurements and body weights are recorded once a week. Fifteen to eighteen days after the initial injection the mice are weighed, sacrificed, and the tumors excised and weighed.
(§3) The efficacy of the test compounds is determined by the extent of tumor growth inhibition in treated versus vehicle-treated control mice. Initial tumor weights (mg) are calculated from the tumor dimensions (mm) obtained from caliper measurements, using the formula for a prolate ellipsoid (mg of tumor weight=(length×width^2)/2). Net tumor weights are calculated for each of the treated groups and the vehicle-treated control group by subtracting the initial tumor weight from the final tumor weight (Day 15-18). Results are expressed as a percentage decrease relative to the mean tumor weight for the control vehicle-treated group.
(§4) Tumor Growth Inhibition= [formula]
(§5) The evaluation criteria of the National Cancer Institute for activity in in vivo cancer models were used. Tumor growth inhibition of 58-89% against the various xenografts is considered moderate activity, and inhibition of ≥90% is considered good to excellent activity. Actual tumor regressions (IR=incomplete regression; FR=full regression) indicate excellent to outstanding activity.

[1] = test system: MX-1 human mammary carcinoma; assay: In vivo human tumor xenograft MX-1 in nude mice; conditions: for Tumor Growth Inhibition activity against MX-1 (in words): NCI criteria
From the text: as §1, §2, §3, §4, §5

[2] = test system: Murine leukemia L1210 cells; assay: In vitro growth inhibition of L1210 cells (MTT, 72 hr); format: cell-based; conditions: Mus musculus, read-out: L1210 IC50
Outline: (§6)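 Cells seeded on day 0 (1×10^3 L1210 or 8×10^2 Clone A per well), graded compound concentrations added on day 1, then 72 hr at 37 °C. MTT 4 h, formazan dissolved in acidic isopropanol, read at 570/630 nm; IC50 from curve fit as half-maximal inhibition of population doublings, eight replicates.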

[3] = test system: Clone A human colon cancer cells; assay: In vitro growth inhibition of Clone A cells (MTT, 72 hr); format: cell-based; conditions: read-out: Clone A IC50
Outline: as §6

physchem = conditions: water
[4] = 12.5 mg/kg, i.v. once daily for nine days, nude mice
[5] = Mus musculus, DLD2, iv, 216 h, read-out: DLD-2 percent tumor growth inhibition
[6] = i.v. once daily for nine days, nude mice
[7] = Mus musculus, iv, 216 h, read-out: MX-1 percent tumor growth inhibition
[8] = Mus musculus, iv, 216 h, read-out: MX-1 tumor regressions, IR=incomplete regression
[9] = Mus musculus, DLD2, iv, 216 h, 12.5 mg/kg, i.v. once daily for nine days, nude mice, read-out: DLD-2 percent tumor growth inhibition

SMILES	solubility (Solubility in water) [µg/mL]	Tumor Growth Inhibition activity against DLD-2 (in words) (DLD-2 human colon tumor; [6])	Tumor Growth Inhibition activity against MX-1 (in words) [1, 6]	IC50 ([2]; L1210, 72 h) [ng/mL]	IC50 ([3]; 72 h) [ng/mL]	IC50 ([2]; L1210 cells, 72 hr, MTT) [ng/mL]	IC50 ([3]; Clone A cells, 72 hr, MTT) [ng/mL]	also measured
CS(=O)(=O)O.CS(=O)(=O)O.Cc1cnc2c(c1)cc1c3c(cc([N+](=O)[O-])cc32)C(=O)N([C@H](C)CNCCNC[C@@H](C)N2C(=O)c3cc([N+](=O)[O-])cc4c3c(cc3cc(C)cnc34)C2=O)C1=O [Example 13, (R, R) -1,2-bis-[2-(3-Nitro-7-methyl-5-azaphenanthrene-1, 10-dicarboximido)propylamino]ethane Dihydromethanesulfonate]	7100	moderate to excellent	moderate to excellent	65	30			DLD-2 tumor regressions, IR=incomplete regression (DLD-2 human colon tumor; [4]): 1/9; inhibition in vivo at 12.5 mg/kg (DLD-2 human colon tumor; [5]): 90%; inhibition in vivo at 12.5 mg/kg [1, 7]: 99%; responders at 12.5 mg/kg [1, 8]: 77.8%
CS(=O)(=O)O.CS(=O)(=O)O.C[C@H](CNCCNC[C@@H](C)N1C(=O)c2cccc3c2c(cc2ccncc23)C1=O)N1C(=O)c2cccc3cc([N+](=O)[O-])cc(c23)C1=O [Example 118, (R,R)-1-[2-(6-Azaphenanthrene-1,10-dicarboximido)propylamino]-2-[2-(3-nitronaphthalene-1,8-dicarboximido)propylamino]ethane Dihydromethanesulfonate]		moderate to excellent	moderate to excellent			29	0.8	DLD-2 tumor regressions, IR=incomplete regression (DLD-2 human colon tumor; 6 mg/kg, i.v. once daily for nine days, nude mice): 7/9; inhibition in vivo at 6 mg/kg (DLD-2 human colon tumor; Mus musculus, DLD2, iv, 216 h, 6 mg/kg, i.v. once daily for nine days, nude mice, read-out: DLD-2 percent tumor growth inhibition): 99%; responders at 3 mg/kg ([1]; Mus musculus, iv, 216 h, 3 mg/kg, i.v. once daily for nine days, nude mice, read-out: MX-1 tumor regressions, IR=incomplete regression (converted)): 100%; solubility (physchem): 65100 µg/mL
CS(=O)(=O)O.CS(=O)(=O)O.Nc1cc2c3c(cc4cccnc4c3c1)C(=O)N(CCCNCCCCN1C(=O)c3cccc4cc([N+](=O)[O-])cc(c34)C1=O)C2=O [Example 112, 4-[3-(3-Amino-5-azaphenanthrene-1,10-dicarboximido)propylamino]-1-(3-nitronaphthalene-1,8-dicarboximido)butane Dihydromethanesulfonate]	7500		moderate to excellent			20	7	inhibition in vivo at 12.5 mg/kg (DLD-2 human colon tumor; [9]): 48%; inhibition in vivo at 25 mg/kg ([1]; Mus musculus, iv, 216 h, 25 mg/kg, i.v. once daily for nine days, nude mice, read-out: MX-1 percent tumor growth inhibition): 98%; responders at 25 mg/kg ([1]; Mus musculus, iv, 216 h, 25 mg/kg, i.v. once daily for nine days, nude mice, read-out: MX-1 tumor regressions, IR=incomplete regression (converted)): 37.5%
CS(=O)(=O)O.O=C1c2cccc3cc([N+](=O)[O-])cc(c23)C(=O)N1CCCCNCCCN1C(=O)c2cccc3c2c(cc2ncccc23)C1=O [Example 114, 4-[3-(8-Azaphenanthrene-1,10-dicarboximido)propylamino]-1-(3-nitronaphthalene-1,8-dicarboximido)butane Hydromethanesulfonate]	680	moderate to excellent	moderate to excellent			< 10	1	DLD-2 tumor regressions, IR=incomplete regression (DLD-2 human colon tumor; [4]): 4/8; inhibition in vivo at 12.5 mg/kg (DLD-2 human colon tumor; [9]): 99%; inhibition in vivo at 12 mg/kg ([1]; Mus musculus, iv, 216 h, 12 mg/kg, i.v. once daily for nine days, nude mice, read-out: MX-1 percent tumor growth inhibition): 98%; responders at 12 mg/kg ([1]; Mus musculus, iv, 216 h, 12 mg/kg, i.v. once daily for nine days, nude mice, read-out: MX-1 tumor regressions, IR=incomplete regression (converted)): 62.5%
CS(=O)(=O)O.CS(=O)(=O)O.Cc1cnc2c(c1)cc1c3c(cc([N+](=O)[O-])cc32)C(=O)N([C@H](C)CNC[C@@H](C)NC[C@@H](C)N2C(=O)c3cc([N+](=O)[O-])cc4c3c(cc3cc(C)cnc34)C2=O)C1=O [Example 25, (R,R)-1,2-bis-[2-(3-Nitro-7-methyl-5-azaphenanthrene-1, 10dicarboximido)propylamino]-(R)-1-methylethane Dihydromethanesulfonate]	4820		moderate to excellent	48	10			inhibition in vivo at 25 mg/kg (DLD-2 human colon tumor; [5]): 97%; MX-1 tumor regressions, FR=full regression ([1]; 25 mg/kg, i.v. once daily for nine days, nude mice): 1/8; inhibition in vivo at 25 mg/kg [1, 7]: 99%; responders at 25 mg/kg [1, 8]: 75%
CS(=O)(=O)O.O=C1c2cccc3cc([N+](=O)[O-])cc(c23)C(=O)N1CCCCNCCCN1C(=O)c2cc([N+](=O)[O-])cc3c2c(cc2ncccc23)C1=O [Example 115, 4-[3-(3-Nitro-8-azaphenanthrene-1,10-dicarboximido)propylamino]-1-(3-nitronaphthalene-1,8dicarboximido)butane Hydromethanesulfonate]	150	moderate to excellent	moderate to excellent	3	1			inhibition in vivo at 10 mg/kg (DLD-2 human colon tumor; [5]): 90%; inhibition in vivo at 6 mg/kg [1, 7]: 95%; responders at 6 mg/kg [1, 8]: 12.5%
CS(=O)(=O)O.CS(=O)(=O)O.C[C@H](CNCCNC[C@@H](C)N1C(=O)c2cc([N+](=O)[O-])cc3c2c(cc2cccnc23)C1=O)N1C(=O)c2cc([N+](=O)[O-])cc3c2c(cc2cccnc23)C1=O [Example 8, (R,R)-1,2-bis-[2-(3-Nitro-5-azaphenanthrene-1,10-dicarboximido)propylamino]ethane Dihydromethanesulfonate]	4000	moderate to excellent	moderate to excellent	30	8			DLD-2 tumor regressions, IR=incomplete regression (DLD-2 human colon tumor; 10 mg/kg, i.v. once daily for nine days, nude mice): 2/9; inhibition in vivo at 10 mg/kg (DLD-2 human colon tumor; [5]): 95%; MX-1 tumor regressions, FR=full regression ([1]; 5 mg/kg, i.v. once daily for nine days, nude mice): 2/9; responders at 5 mg/kg [1, 8]: 77.8%
CS(=O)(=O)O.O=C1c2cccc3cc([N+](=O)[O-])cc(c23)C(=O)N1CCCCNCCCN1C(=O)c2cc([N+](=O)[O-])cc3c2c(cc2cccnc23)C1=O [Example 111, 4-[3-(3-Nitro-5-azaphenanthrene-1,10-dicarboximido)propylamino]-1-(3-nitronaphthalene-1,8-dicarboximido)butane Hydromethanesulfonate]	240	moderate to excellent	moderate to excellent	3	2			DLD-2 tumor regressions, IR=incomplete regression (DLD-2 human colon tumor; 18 mg/kg, i.v. once daily for nine days, nude mice): 2/7; inhibition in vivo at 18 mg/kg (DLD-2 human colon tumor; [5]): 99%; MX-1 tumor regressions, FR=full regression ([1]; 20 mg/kg, i.v. once daily for nine days, nude mice): 1/9; inhibition in vivo at 20 mg/kg [1, 7]: 99%; responders at 20 mg/kg [1, 8]: 77.8%
